Key:
calcium level in serum [1] = assay: Serum calcium in rats made hypercalcemic with Vitamin D3 (Example 1); format: in vivo, male Wistar rats; settings: for Calcium level in serum: 24R 100 µg/kg oral, calcitonin 4 MRCU/kg s.c.
Description: To 16 subgroups of male Wistar rats of body weight of 150±40 g (one subgroup consisting of 5 rats), a solution of Vitamin D3 dissolved in corn oil at 600 micrograms/ml was orally administered once a day for continuous 4 days at a daily dose rate of 0.5 ml/100 g body weight to prepare the rats artifically suffering from hypercalcemia. After one day's fasting from the final administration of Vitamin D3, the calcium level in the serum of each rat of the first subgroup was on the average 13.5±0.4 mg/dl. The remaining 15 subgroups of the rats were divided into 3 groups each consisting of 5 subgroups and subjected to the following tests.
To the rats of the second group, a solution of porcine calcitonin in a physiological saline solution containing 4% by weight of gelatin was subcutaneously injected at a dose rate of 4 MRCU/kg body weight instead of the solution of 24R,25-(OH)2 -D3 and they were treated as those of the first group.
To the rats of the third group, only the same triglyceride ester as in the first group was orally administered, and they are treated in the same manner as in the first group.
The calcium level of the respective sera of the thus collected blood was determined by OCPC method (Orthocresol Phthalein Complexone method) and shown in Table 1.

[2] = 30-day repeated oral administration toxicity (Example 26); format: in vivo, ICR mouse; settings: 10 to 1000 µg/kg/day p.o., 30 days
Description: 24R,25-(OH)2 -D3 was dissolved in Panacete® 810 containing 1% by weight of ethanol, and the solution was forcibly p.o. administered once a day for 30 continuous days to each male or female ICR mouse of the groups shown in Table 20 at each one of the daily dose rates also shown in Table 20.
As the control, Panacete 810 was solely and forcibly p.o. administered to the mice of the same strain once a day for 30 continuous days.

calcium level in serum [3] = assay: Serum calcium in patient with hyperparathyroidism accompanied by hypercalcemia (Example 6); format: in vivo, human; settings: person seventeen, 10 µg/day oral
From the text: The thus prepared capsule composition was tentatively applied to the following two cases of human hyperparathyroidism accompanied by hypercalcemia:
To patient seventeen suffering from hyperparathyroidism accompanied by hypercalcemia, one of the capsule composition prepared as above containing 1 microgram of the active ingredient in one capsule was orally administered at a daily dose of 10 micrograms of 24R,25-(OH)2 -D3 for continuous 4 days.

calcium level in serum [4] = assay: Serum calcium in rats made hypercalcemic with parathyroid hormone (Example 3); format: in vivo, male Wistar rats; settings: 50 µg/kg i.p., PTH-treated
Description: To 4 subgroups of male Wistar rats of 150±40 g of body weight (a subgroup consisting of 5 animals), parathyroid hormone (PTH, Sigma Bovine parathyroid TCA powder, 134 USPU/mg) dissolved in a physiological saline solution containing 4% by weight of gelatine was subcutaneously injected at a dose rate of 150 USPU/100 g body weight, the volume injected being 0.4 ml/100 g body weight to prepare the rats artificially suffering from hypercalcemia.
The rats of the second group, after one hour of the administration of the parathroid hormone, were intraperitoneally administered only with ethanol, and treated as in the first group for taking the blood specimen.

[5] = test system: LICR-LON-HMy 2 cells derived from human myeloma; assay: Inhibition of proliferation of LICR-LON-HMy 2 cells (Example 25); format: cell-based; settings: 3 days
Description: In a similar manner to Example 24, in vitro proliferated strain of LICR-LON-HMy 2 cells derived from human myeloma were cultured in each one of the same culture mediums as those used in Example 24. After culturing for 3 days, the cultured medium was stained with tripan blue and observed under a microscope to count the number of living cells, the results being shown in Table 19.
In Table 19, the inhibition rate is based on the number of cells in the culture medium added specifically with dimethylsulfoxide as in Example 24.

calcium level in serum [6] = assay: Prevention of hypercalcemia in rats administered with 1-α-(OH)-D3 (Example 4); format: in vivo, male Wistar rats; settings: 100 µg/kg oral together with 1-α-(OH)-D3 10 µg/kg i.p.
From the text: In the present example, it is shown that 24R,25-(OH)2 -D3 has a function of preventing the occurrence of hypercalcemia on rats administered with 1-α-hydroxycholecalciferol (hereinafter referred to as 1-α-(OH)-D3).
Six subgroups of male Wistar rats of 130±30 g of body weight were subjected to the test while dividing the rats into 3 groups, each group consisting of 2 subgroups and each subgroup consisting of 5 animals. To the rats of the first group, after fasting for a night, an ethanolic solution of 1-α-(OH)-D3 was intraperitoneally administered at a dose rate of 10 micrograms of 1-α-(OH)-D3 /kg body weight. To the rats of the second group, a solution of 24R,25-(OH)2 -D3 in the triglyceride ester used in Example 1 was orally administered at a dose rate of 100 micrograms/kg body weight simultaneously with the same administration of 1-α-(OH)-D3 as in the rats of the first group.
The third group of the rats was used for control only with the oral administration of the triglyceride ester used in Example 1.

## C=C1CC[C@H](O)C/C1=C/C=C1\CCC[C@]2(C)[C@@H]([C@H](C)CC[C@@H](O)C(C)(C)O)CC[C@@H]12 [24R,25-(OH)2 -D3]
Calcium level in serum [1]; 100 µg/kg oral
  period for which the reduced calcium level was maintained: 12 h
Calcium level in serum [1]; 2 h after administration
  Calcium level in serum: 12.5 ± 0.4 mg/dL
Calcium level in serum [1]; 5 h after administration
  Calcium level in serum: 11.0 ± 0.5 mg/dL
Calcium level in serum [1]; 8 h after administration
  Calcium level in serum: 10.5 ± 0.5 mg/dL
Calcium level in serum [1]; 12 h after administration
  Calcium level in serum: 10.5 ± 0.4 mg/dL
Calcium level in serum [1]; 24 h after administration
  Calcium level in serum: 10.8 ± 0.3 mg/dL
[2]
  histopathological examination of organs: no abnormal findings were obtained
[2]; all groups
  body weight: no significant difference of body weight was observed
  weights of internal organs: not significantly different
Calcium level in serum [3]
  calcium level in serum after administration for 4 days: 10.8 mg/dL
Calcium level in serum [4]; after 2 hours
  Calcium level in serum: 12.5 ± 0.5 mg/dL
Calcium level in serum [4]; after 5 hours
  Calcium level in serum: 10.5 ± 0.5 mg/dL
[5]; 1 microgram/ml
  Number of myeloma cells after culture: 8.0 ×10^5 cells/ml
[5]; 10 micrograms/ml
  Number of myeloma cells after culture: 0.4 ×10^5 cells/ml
[5]; Homo sapiens, 72 h, 1 microgram/ml, vs dimethylsulfoxide, read-out: Inhibition Rate of the myeloma cells
  inhibition at 1 µg/mL: 12%
[5]; Homo sapiens, 72 h, 10 micrograms/ml, vs dimethylsulfoxide, read-out: Inhibition Rate of the myeloma cells
  inhibition at 10 µg/mL: 96%
Calcium level in serum [6]; after 10 hours
  Calcium level in serum: 11.5 ± 0.5 mg/dL
Calcium level in serum [6]; after 18 hours
  Calcium level in serum: 10.6 ± 0.4 mg/dL

Source: US4442093A, “Method for administering 24,25-dihydroxycholecalciferol to persons suffering from hypercalcemia” (Kureha Kagaku Kogyo Kabushiki Kaisha, priority 1981, dated 1984)
